The values below come from ChEMBL document CHEMBL2331107, “Novel fluorescent risedronates: synthesis, photodynamic inactivation and imaging of Bacillus subtilis” (2013).

The structures appear in SMILES notation. Active and inactive are the calls of the source.

One may read the MIC as the smallest concentration in the dilution series that meets the test's criterion for growth inhibition.

Experiment [1] concerns Bacillus subtilis. The experiment can be described thus: Antimicrobial activity against Bacillus subtilis ATCC 6633 measured after 24 hrs at 37 degC. In kind it is functional. Particulars: ATCC 6633, 24 h.
In experiment [2] the test system is Bacillus subtilis. Put plainly: Antimicrobial activity against Bacillus subtilis ATCC 6633 assessed as photodynamic inactivation measured as lethality at 10 uM. The experiment is classed as functional.

With `O=C(NCC(O)C[n+]1cccc(CC(O)(P(=O)(O)O)P(=O)(O)O)c1)c1cc2ccccc2oc1=O` (stereo not drawn), the minimal inhibitory concentration (MIC) in the experiment with Bacillus subtilis [1] was greater than 128 µg/mL. For the same compound, in the experiment on Bacillus subtilis [2], the Activity came out at 91%.

As for `O=C(O)c1cc2ccccc2oc1=O`, the outcome in the experiment on Bacillus subtilis [2] was inactive.

With `O=C(NCC(O)C[n+]1cccc(CC(O)(P(=O)(O)O)P(=O)(O)O)c1)c1ccccc1` (stereo not drawn), the minimum inhibitory concentration (MIC) with Bacillus subtilis [1] was greater than 128 µg/mL.

For the compound `O=C(NCC(O)C[n+]1cccc(CC(O)(P(=O)(O)O)P(=O)(O)O)c1)c1cc2c(ccc3ccccc32)oc1=O` (stereo not drawn), in the experiment on Bacillus subtilis [1], the MIC was greater than 128 µg/mL. Also, the Activity in the experiment with Bacillus subtilis [2] stood at 47%.

`O=C(O)c1cc2c(ccc3ccccc32)oc1=O`: the outcome in the experiment on Bacillus subtilis [2] was inactive.

With `O=C(NCC(O)C[n+]1cccc(CC(O)(P(=O)(O)O)P(=O)(O)O)c1)c1ccccc1O` (stereo not drawn), in the experiment on Bacillus subtilis [1], the minimum inhibitory concentration (MIC) is greater than 128 µg/mL.
